Here are results for 33 compounds from patent US20260347319A1, “YAP/TAZ-TEAD ONCOPROTEINS INHIBITORS” (BridGene Biosciences, Inc., priority 2022, published 2026).

For the assay, the system named is TEAD1. In words: MCF-7 TEAD1-luciferase reporter assay (MCF7-TEAD-Luc). The class given is cell-based. Particulars: MCF7 cells, overnight; for IC50: Homo sapiens; for TEAD1-Luc MCF7: Max Inhibition: % of DMSO-treated control. How it is done: The ability of compounds to inhibit TEAD-dependent transcription was assessed in the MCF7-TEAD-Luc reporter assay (BPS #60618). Cells were seeded at 10,000 cells in 200 μL per well into white wall, clear bottom 96-well plates (Corning #3610) and incubated at 37° C. for 24 hours, then treated with serial diluted compounds overnight, and luciferase signal was measured using the ONE-Step Luciferase Assay System (BPS #60690) using an EnSight Multimode plate reader (PerkinElmer, model #MLDHH34000000, integration time 100 ms) with Kaleido 3.0. software. For data analysis, dose-dependent curves were plotted as “% inhibition” (% of DMSO-treated control wells), and were fitted by four-parametric model in GraphPad Prism to obtain IC50 values.

The term IC50 denotes the concentration that gives 50% inhibition. For the compound `C=CC(=O)N1CCC2(CC(c3ccc(C(F)(F)F)cc3)=CO2)C1` (single isomer, unassigned) [Example 98, 1-(3-(4-(trifluoromethyl)phenyl)-1-oxa-7-azaspiro[4.4]non-2-en-7-yl)prop-2-en-1-one], the IC50 is above 500 nM and the “TEAD1-Luc MCF7: Max Inhibition” value was “C (50% > C ≥ 2%)”.

Consider `C=CC(=O)N1CC[C@H]([C@@H](O)/C=C/c2ccc(C(F)(F)F)cc2)C1` (single isomer, unassigned) [Example 103], for which the IC50 was 100 to 500 nM and the “TEAD1-Luc MCF7: Max Inhibition” value is “B (75% > B ≥ 50%)”.

Regarding `C=CC(=O)N1CC[C@H]([C@H](O)/C=C/c2ccc(C(F)(F)F)cc2)C1` (single isomer, unassigned) [Example 104], the IC50 fell in the range of 100 to 500 nM and the “TEAD1-Luc MCF7: Max Inhibition” value is listed as “B (75% > B ≥ 50%)”.

As for `C=CC(=O)N1C[C@H](C)[C@@H](/C=C/c2ccc(C(F)(F)F)cc2)C1` (stereo in doubt) [Example 40, 1-[(3R*,4R*)-3-methyl-4-{2-[4-(trifluoromethyl)phenyl]ethenyl}pyrrolidin-1-yl]prop-2-en-1-one], the IC50 is above 500 nM and the “TEAD1-Luc MCF7: Max Inhibition” value is listed as “A (A ≥ 75%)”.

In the case of `C=CC(=O)N1CC(C/C=C/c2cc(C(F)(F)F)on2)C1` [Example 2, 1-{3-[(2E)-3-[5-(trifluoromethyl)-1,2-oxazol-3-yl]prop-2-en-1-yl]azetidin-1-yl}prop-2-en-1-one], the IC50 was at most 10 nM and the “TEAD1-Luc MCF7: Max Inhibition” value is “A (A ≥ 75%)”.

Turning to `C=CC(=O)N1CC(/C=C/c2ccc(C(F)(F)F)c(OC)c2)C1` [Example 3, 1-{3-[(E)-2-[3-methoxy-4-(trifluoromethyl)phenyl]ethenyl]azetidin-1-yl}prop-2-en-1-one], the IC50 is at most 10 nM and the “TEAD1-Luc MCF7: Max Inhibition” value is reported as “B (75% > B ≥ 50%)”.

Turning to `C=CC(=O)N1CC(/C=C/c2ccc(C(F)(F)F)c(F)c2)C1` [Example 4, 1-{3-[(E)-2-[3-fluoro-4-(trifluoromethyl)phenyl]ethenyl]azetidin-1-yl}prop-2-en-1-one], the IC50 was at most 10 nM and the “TEAD1-Luc MCF7: Max Inhibition” value was “A (A ≥ 75%)”.

On to `C=CC(=O)N1CCC(/C=C/c2ccc(C(F)(F)F)cc2)CC1` [Example 6], for which the IC50 is 10 to 100 nM and the “TEAD1-Luc MCF7: Max Inhibition” value is listed as “B (75% > B ≥ 50%)”.

Regarding `C=CC(=O)N1CC(F)(/C=C/c2cc(C(F)(F)F)on2)C1` [Example 7, (E)-1-(3-fluoro-3-(2-(5-(trifluoromethyl)isoxazol-3-yl)vinyl)azetidin-1-yl)prop-2-en-1-one], the IC50 is at most 10 nM and the “TEAD1-Luc MCF7: Max Inhibition” value is “A (A ≥ 75%)”.

With `C=CC(=O)N1CC(F)(/C=C\c2cc(C(F)(F)F)on2)C1` [Example 8, (Z)-1-(3-fluoro-3-(2-(5-(trifluoromethyl)isoxazol-3-yl)vinyl)azetidin-1-yl)prop-2-en-1-one], the IC50 was at most 10 nM and the “TEAD1-Luc MCF7: Max Inhibition” value is reported as “A (A ≥ 75%)”.

For the compound `C=CC(=O)N1CC(C)(/C=C/c2cc(C(F)(F)F)on2)C1` [Example 16, 1-(3-methyl-3-(2-(5-(trifluoromethyl)isoxazol-3-yl)vinyl)azetidin-1-yl)prop-2-en-1-one], the IC50 was at most 10 nM and the “TEAD1-Luc MCF7: Max Inhibition” value was “A (A ≥ 75%)”.

`C=CC(=O)N1CC(/C=C/c2ccc(C(F)(F)F)cc2)(OC)C1` [Example 17]: the IC50 was at most 10 nM and the “TEAD1-Luc MCF7: Max Inhibition” value was “B (75% > B ≥ 50%)”.

In the case of `C=CC(=O)N1CC(C)(/C=C/c2ccc(C(F)(F)F)cc2)C1` [Example 18], the IC50 is at most 10 nM and the “TEAD1-Luc MCF7: Max Inhibition” value is recorded as “A (A ≥ 75%)”.

In the case of `C=CC(=O)N1CC(/C=C/c2ccc(C(F)(F)F)cc2OC)C1` [Example 19, 1-(3-(2-methoxy-4-(trifluoromethyl)styryl)azetidin-1-yl)prop-2-en-1-one], the 50% inhibitory concentration (IC50) was in the range of 10 to 100 nM and the “TEAD1-Luc MCF7: Max Inhibition” value was “C (50% > C ≥ 2%)”.

For the compound `C=CC(=O)N1CC2(CC(/C=C/c3ccc(C(F)(F)F)cc3)C2)C1` [Example 20], the IC50 is 100 to 500 nM and the “TEAD1-Luc MCF7: Max Inhibition” value was “B (75% > B ≥ 50%)”.

Take `C=CC(=O)N1CC2(CC(/C=C/c3cc(C(F)(F)F)on3)C2)C1` [Example 22, 1-{6-[(E)-2-[5-(trifluoromethyl)-1,2-oxazol-3-yl]ethenyl]-2-azaspiro[3.3]heptan-2-yl}prop-2-en-1-one]: the IC50 was 10 to 100 nM and the “TEAD1-Luc MCF7: Max Inhibition” value is “B (75% > B ≥ 50%)”.

For `C=CC(=O)N1CC2(CC(/C=C\c3cc(C(F)(F)F)on3)C2)C1` [Example 23, 1-{6-[(Z)-2-[5-(trifluoromethyl)-1,2-oxazol-3-yl]ethenyl]-2-azaspiro[3.3]heptan-2-yl}prop-2-en-1-one], the IC50 is 10 to 100 nM and the “TEAD1-Luc MCF7: Max Inhibition” value is listed as “B (75% > B ≥ 50%)”.

With `C=CC(=O)N1CC2(CCC(/C=C/c3cc(C(F)(F)F)on3)CC2)C1` [Example 24, 1-{7-[(E)-2-[5-(trifluoromethyl)-1,2-oxazol-3-yl]ethenyl]-2-azaspiro[3.5]nonan-2-yl}prop-2-en-1-one], the IC50 is above 500 nM and the “TEAD1-Luc MCF7: Max Inhibition” value was “C (50% > C ≥ 2%)”.

With `C=CC(=O)N1CC2(CCC(/C=C\c3cc(C(F)(F)F)on3)CC2)C1` [Example 25, 1-{7-[(Z)-2-[5-(trifluoromethyl)-1,2-oxazol-3-yl]ethenyl]-2-azaspiro[3.5]nonan-2-yl}prop-2-en-1-one], the IC50 fell in the range of 100 to 500 nM and the “TEAD1-Luc MCF7: Max Inhibition” value is listed as “B (75% > B ≥ 50%)”.

For `C=CC(=O)N1CC(/C=C\c2cc(C(F)(F)F)on2)C1` [Example 26, 1-{3-[(Z)-2-[5-(trifluoromethyl)-1,2-oxazol-3-yl]ethenyl]azetidin-1-yl}prop-2-en-1-one], the IC50 fell in the range of 10 to 100 nM and the “TEAD1-Luc MCF7: Max Inhibition” value is “B (75% > B ≥ 50%)”.

`C=CC(=O)N1C[C@@H](CC)[C@H](/C=C\c2ccc(C(F)(F)F)cc2)C1` [Example 31, 1-{3-ethyl-4-[(Z)-2-[4-(trifluoromethyl)phenyl]ethenyl]pyrrolidin-1-yl}prop-2-en-1-one]: the IC50 is 100 to 500 nM and the “TEAD1-Luc MCF7: Max Inhibition” value was “A (A ≥ 75%)”.

Regarding `C=CC(=O)N1C[C@@H](CC)[C@H](/C=C/c2ccc(C(F)(F)F)cc2)C1` [Example 32, 1-{3-ethyl-4-[(E)-2-[4-(trifluoromethyl)phenyl]ethenyl]pyrrolidin-1-yl}prop-2-en-1-one], the IC50 lay within 100 to 500 nM and the “TEAD1-Luc MCF7: Max Inhibition” value was “A (A ≥ 75%)”.

Take `C=CC(=O)N1CCC(/C=C/c2ccc(C(F)(F)F)cc2)(OC)C1` (stereo not drawn) [Example 35, (E)-1-(3-methoxy-3-(4-(trifluoromethyl)styryl)pyrrolidin-1-yl)prop-2-en-1-one]: the IC50 lay in the range of 10 to 100 nM and the “TEAD1-Luc MCF7: Max Inhibition” value is recorded as “A (A ≥ 75%)”.

Turning to `C=CC(=O)N1CC(C#N)(/C=C/c2ccc(C(F)(F)F)cc2)C1` [Example 37], the IC50 fell in the range of 10 to 100 nM and the “TEAD1-Luc MCF7: Max Inhibition” value is given as “A (A ≥ 75%)”.

Regarding `C=CC(=O)N1CC2(CC=C(c3ccc(C(F)(F)F)cc3)CC2)C1` [Example 46, 1-(7-(4-(trifluoromethyl)phenyl)-2-azaspiro[3.5]non-6-en-2-yl)prop-2-en-1-one], the half-inhibitory concentration (IC50) is 10 to 100 nM and the “TEAD1-Luc MCF7: Max Inhibition” value is “B (75% > B ≥ 50%)”.

With `C=CC(=O)N1CC2(C=C(c3ccc(C(F)(F)F)cc3)CC2)C1` [Example 47, 1-(6-(4-(trifluoromethyl)phenyl)-2-azaspiro[3.4]oct-5-en-2-yl)prop-2-en-1-one], the IC50 was at most 10 nM and the “TEAD1-Luc MCF7: Max Inhibition” value is listed as “C (50% > C ≥ 2%)”.

With `C=CC(=O)N1CC2(CC=C(c3ccc(C(F)(F)F)cc3)C2)C1` [Example 48, 1-(6-(4-(trifluoromethyl)phenyl)-2-azaspiro[3.4]oct-6-en-2-yl)prop-2-en-1-one], the IC50 is 100 to 500 nM and the “TEAD1-Luc MCF7: Max Inhibition” value is on record as “B (75% > B ≥ 50%)”.

Regarding `C=CC(=O)N1CC(c2cc3ccc(C(F)(F)F)cc3o2)C1` [Example 49, 1-{3-[6-(trifluoromethyl)-1-benzofuran-2-yl]azetidin-1-yl}prop-2-en-1-one], the IC50 was in the range of 100 to 500 nM and the “TEAD1-Luc MCF7: Max Inhibition” value is reported as “B (75% > B ≥ 50%)”.

In the case of `C=CC(=O)N1CC(c2cc3cc(C(F)(F)F)ccn3n2)C1` [Example 50, 1-(3-(5-(trifluoromethyl)pyrazolo[1,5-a]pyridin-2-yl)azetidin-1-yl)prop-2-en-1-one], the IC50 is at most 10 nM and the “TEAD1-Luc MCF7: Max Inhibition” value is reported as “B (75% > B ≥ 50%)”.

Consider `C=CC(=O)N1CC(c2cc3ccc(C(F)(F)F)cn3n2)C1` [Example 51, 1-(3-(6-(trifluoromethyl)pyrazolo[1,5-a]pyridin-2-yl)azetidin-1-yl)prop-2-en-1-one], for which the half-inhibitory concentration (IC50) fell in the range of 10 to 100 nM and the “TEAD1-Luc MCF7: Max Inhibition” value is “B (75% > B ≥ 50%)”.

As for `C=CC(=O)N1CC(c2cc3ccc(C(F)(F)F)cc3[nH]2)C1` [Example 52, 1-{3-[6-(trifluoromethyl)-1H-indol-2-yl]azetidin-1-yl}prop-2-en-1-one], the IC50 lay within 10 to 100 nM and the “TEAD1-Luc MCF7: Max Inhibition” value is listed as “A (A ≥ 75%)”.

In the case of `C=CC(=O)N1CC(c2cc3ccc(C(F)(F)F)cc3n2C)C1` [Example 53, 1-{3-[1-methyl-6-(trifluoromethyl)indol-2-yl]azetidin-1-yl}prop-2-en-1-one], the IC50 was 100 to 500 nM and the “TEAD1-Luc MCF7: Max Inhibition” value is on record as “B (75% > B ≥ 50%)”.

With `C=CC(=O)N1CCC(/C=C/c2cccc(C(F)(F)F)c2)CC1` [Example 54, (E)-1-(4-(3-(trifluoromethyl)styryl)piperidin-1-yl)prop-2-en-1-one], the IC50 lay within 100 to 500 nM and the “TEAD1-Luc MCF7: Max Inhibition” value is on record as “B (75% > B ≥ 50%)”.
